Experimental data from patent publication US8436020B2, “Processes for the preparation of piperidinic derivatives and pharmaceutic compositions containing the same” (priority 2004, dated 2013).
Values joined by “and” are separate entries in the source; they are usually repeats but may differ in a detail not shown here. Equal values may be shown once. “Also recorded” adds a separate entry of the source. Read-outs that look alike come from different tables or passages of the source.

Columns and labels:
[1] = Cholinergic side effects (diarrhea) 30 minutes after administration, rats; type: in vivo
Text: Results from this assay can be seen in FIGS. 8-9.

[2] = tested on: amnesia induced by scopolamine; test: Amnesia induced by scopolamine in the Morris water maze; type: in vivo, Wistar rats; details: rats, scopolamine 1 mg/kg, 4 days test
Method: A total of 39 Wistar rats (females—±200 g) were used.
After 30 minutes of intraperitoneal second administration (saline or scopolamine), the animals were challenged to localize an underwater platform in a round recipient containing opaque water (water maze) and the escape latency (in seconds) was computed. […] Tests were conducted twice a day, during 4 consecutive days.
When treated with scopolamine 30 minutes before the challenge, the animals could not learn the task and the escape latency approaches maximum values (150 s) in the fourth day of the test.

[3] = target: cholinesterase in homogenized rat brain (Rattus norvegicus, UniProt P37136); details: for IC50: rat brain homogenate
Method: In all experiments, cholinesterase-independent substrate hydrolysis (non specific) was determined by the inclusion of an experimental group treated with THA 20 μM. Appropriate tissues and reagents (em branco) were also included. Reaction velocities were determined in 3 or 4 repetitions by condition; mean values were calculated and expressed as percentages of relative activity in respect to control (solvent), after subtraction of the non-specific hydrolysis rate. The substances were tested in at least five different concentrations. From the resulting inhibition curve, values in the ranges […] 20%-80% were considered, with concentration limited to 500 μM. The IC50, based in a single-site model, was determined via linear regression.

[4] = Water solubility of the chlorhydrate derivatives
[5] = type: in vivo, mice
[6] = tested on: amnesia induced by scopolamine; test: Amnesia induced by scopolamine in the inhibitory avoidance assay; type: in vivo, Swiss mice; details: mice
Text: A total of 120 adult male (25-30 g) Swiss mice were used. The animals were submitted to the inhibitory avoidance assay, which consists of a box with a base made of a grid connected to an electrostimulator (0.6 mA/3 s), and containing a wood platform (3 cm^3). Mice were put over this platform; being computed the latency (in seconds) until the animals put the four paws over the grid. In the first day of the test (“training”), animals would receive an adverse electrical stimulus (0.6 mA/3 s) whenever they stepped down to the grid (step down latency—SDL). At this stage, animals that would stay more than 15 seconds over the platform were discarded. Twenty-four hours later, the animals were re-introduced over the platform and the SDL computed (“retention”).

BuChE = BuChE (Homo sapiens, UniProt P06276); details: arisugacines and cyclopenine: no BuChE inhibition at this multiple; cyclophostin: BuChE inhibited at this multiple; cited from earlier work
AChE [7] = target: T1, AChE (Homo sapiens, UniProt P22303); details: read-out: IC50, AChE; cited from earlier work
AChE [8] = target: T1, AChE; details: cited from earlier work; for IC50: read-out: IC50 AChE, tacrine as positive control
[9] = target: butyrylcholinesterase (BuChE) (Homo sapiens, UniProt P06276); details: read-out: IC50 BuChE; cited from earlier work
AChE [10] = target: T1, AChE; details: cited from earlier work
AChE [11] = target: T1, AChE; details: read-out: IC50, AChE activity; cited from earlier work
AChE [12] = target: T1, AChE; details: read-out: IC50, anticholinesterasic activity; cited from earlier work
[13] = read-out: Experimental IC50, cerebral cholinesterase inhibition, single independent experiment (one animal), acetylthiocholine 1 mM
[14] = read-out: Mean IC50, cerebral cholinesterase inhibition, mean of N independent experiments

T1 sequence (P22303 32-614): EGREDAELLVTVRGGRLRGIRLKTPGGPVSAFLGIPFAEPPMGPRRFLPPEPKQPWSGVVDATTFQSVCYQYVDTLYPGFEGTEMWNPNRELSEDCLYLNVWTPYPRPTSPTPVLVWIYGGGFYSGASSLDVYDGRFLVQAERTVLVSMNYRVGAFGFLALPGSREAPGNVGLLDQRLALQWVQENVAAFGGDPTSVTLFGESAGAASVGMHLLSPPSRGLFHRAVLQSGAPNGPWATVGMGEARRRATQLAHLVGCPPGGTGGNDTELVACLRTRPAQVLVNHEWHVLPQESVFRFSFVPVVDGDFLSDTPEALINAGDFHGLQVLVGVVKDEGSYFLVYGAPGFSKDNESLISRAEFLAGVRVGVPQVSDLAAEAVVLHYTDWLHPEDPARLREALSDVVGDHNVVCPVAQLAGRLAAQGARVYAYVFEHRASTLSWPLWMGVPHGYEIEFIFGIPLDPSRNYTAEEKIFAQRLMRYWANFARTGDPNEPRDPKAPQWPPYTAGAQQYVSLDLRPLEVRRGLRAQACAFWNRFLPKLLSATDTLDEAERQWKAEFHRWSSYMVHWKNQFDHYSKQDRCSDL
Chain of cholinesterase in homogenized rat brain (P37136 32-614): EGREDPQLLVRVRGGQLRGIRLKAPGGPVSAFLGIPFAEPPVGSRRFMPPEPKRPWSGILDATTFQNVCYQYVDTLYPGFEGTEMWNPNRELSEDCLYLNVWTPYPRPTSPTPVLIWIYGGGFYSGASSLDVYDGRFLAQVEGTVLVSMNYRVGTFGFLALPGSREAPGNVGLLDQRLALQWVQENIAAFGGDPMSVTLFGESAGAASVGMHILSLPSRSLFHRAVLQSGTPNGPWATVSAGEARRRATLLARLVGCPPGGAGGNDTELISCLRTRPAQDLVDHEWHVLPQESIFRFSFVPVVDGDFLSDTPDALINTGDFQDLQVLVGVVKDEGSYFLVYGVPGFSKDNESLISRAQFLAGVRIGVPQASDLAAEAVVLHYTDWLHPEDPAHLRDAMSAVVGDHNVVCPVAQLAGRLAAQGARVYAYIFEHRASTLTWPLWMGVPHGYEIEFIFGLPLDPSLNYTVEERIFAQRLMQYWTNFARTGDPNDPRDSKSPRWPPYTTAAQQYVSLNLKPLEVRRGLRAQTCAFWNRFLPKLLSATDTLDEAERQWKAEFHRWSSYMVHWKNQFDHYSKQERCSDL
Chain of BuChE (P06276 29-602): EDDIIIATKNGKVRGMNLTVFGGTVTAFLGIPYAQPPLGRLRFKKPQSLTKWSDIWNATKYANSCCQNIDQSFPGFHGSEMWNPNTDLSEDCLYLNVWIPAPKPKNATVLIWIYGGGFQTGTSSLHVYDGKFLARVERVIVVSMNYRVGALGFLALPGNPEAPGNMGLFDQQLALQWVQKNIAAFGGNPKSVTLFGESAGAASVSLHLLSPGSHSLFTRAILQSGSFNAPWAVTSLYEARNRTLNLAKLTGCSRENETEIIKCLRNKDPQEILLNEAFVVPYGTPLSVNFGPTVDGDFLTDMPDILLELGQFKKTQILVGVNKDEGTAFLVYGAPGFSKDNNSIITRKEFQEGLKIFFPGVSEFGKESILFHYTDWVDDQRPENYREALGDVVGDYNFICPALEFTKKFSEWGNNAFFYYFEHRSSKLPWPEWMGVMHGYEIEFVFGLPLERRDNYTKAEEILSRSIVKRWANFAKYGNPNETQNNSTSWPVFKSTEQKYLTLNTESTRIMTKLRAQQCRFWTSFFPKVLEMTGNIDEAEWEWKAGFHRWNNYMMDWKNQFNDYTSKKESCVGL
Chain of butyrylcholinesterase (BuChE) (P06276 29-602): as above

In the case of `CC(=O)CCCCCCCCCCCC[C@H]1CC[C@@H](OC(C)=O)[C@@H](C)N1.Cl` [LASSBio-767, 2-(R)-methyl-3-(R)—O-acetyl-6-(S)-(tetradecyl-13′-one)-piperidine chlorhydrate], the Occurrence of diarrhea [1] is reported as “Only animals treated with tacrine presented diarrhea”, the “Reversion of amnesia induced by scopolamine, escape latency in water maze” value (from here on “Reversion of amnesia induced … in water maze”) ([2]; 1 mg/kg) is reported as “superior effect in relation to tacrine in the reversion of the induced amnesia by scopolamine” and the “Reversion of amnesia induced … in water maze” value ([2]; 10 mg/kg) is reported as “also observed”. The “AChE inhibitory capacity ex vivo” value [3] was “remarkable anticholinesterasic activity”, the IC50 [3, 13] was 4.82 µM and 4.49 µM and the IC50 [3, 14] was 4.65 µM. For the same molecule, the Solubility in water [4] was “water-soluble”, the “Cholinergic side effects and motor activity” value ([5]; 10 mg/kg) was “no cholinergic side effects and no interference in the motor activity” and the “Reversion of amnesia induced by scopolamine, step down latency” value (“Reversion … step down latency” for short) ([6]; 1 and 10 mg/kg, scopolamine 1 mg/kg) was “do not differ from the ones treated only with scopolamine; also recorded: did not present any effect on the amnesia induced by scopolamine”.
In the case of `CC(=O)CCCCCCCCCCCC[C@H]1CC[C@@H](O)[C@@H](C)N1.Cl` [LASSBio-768, Espectaline Chlorhydrate], the “AChE inhibitory capacity ex vivo” value [3] is reported as “remarkable anticholinesterasic activity”, the IC50 [3, 13] is reported as 195 µM and 278 µM and the IC50 [3, 14] is reported as 236 µM. For the same molecule, the Solubility in water [4] was “water-soluble”.
With `CC(=O)O[C@@H]1CC[C@H](CCCCCCCCCCCCC(C)O)N[C@@H]1C` (stereo partly drawn) [LASSBio-783, (2R,3R,6S)-3-acetoxy-6-(13-hydroxy-tetradecyl-2-methyl)-piperidine chlorhydrate] the IC50 [3, 13] was 333 µM and 702 µM and 242 µM and the IC50 [3, 14] was 426 µM.
In the case of `CC(=O)CCCCCCCCCCCC[C@H]1CC[C@@H](OC(=O)OC(C)(C)C)[C@@H](C)N1.Cl` [LASSBio-822, 2-(R)-methyl-3-(R)—O-ter-butoxycarbonyl-6-(S)-(tetradecyl-13′-one)-piperidine chlorhydrate], the “Reversion of amnesia induced … in water maze” value ([2]; 1 mg/kg) is reported as “not capable of antagonize the amnesia induced by scopolamine”, the “AChE inhibitory capacity ex vivo” value [3] is reported as “remarkable anticholinesterasic activity” and the IC50 [3, 13] is reported as 9.15 µM and 16.2 µM and 19.9 µM. For the same molecule, the IC50 [3, 14] was 15.1 µM, the Solubility in water [4] was “water-soluble” and the “Reversion … step down latency” value ([6]; 1 and 3 mg/kg, scopolamine 1 mg/kg) was “significant partial reversion of the amnesia induced by scopolamine; also recorded: capable of a significant reversion of the amnesia induced by scopolamine”.
For `Nc1c2c(nc3ccccc13)CCCC2` [Tacrine, tacrine, reference compound], the Animals with diarrhea ([1]; 1 mg/kg) was 100%, the “Reversion of amnesia induced … in water maze” value ([2]; 1 mg/kg) was “antagonize the induced amnesia by scopolamine, a significant effect in the fourth day of the study” and the “Mice with diarrhea and urination” value ([5]; 10 mg/kg I.P., mice) was 70%. For the same molecule, the “Other side effects observed” value ([5]; 10 mg/kg I.P., mice) was “hypothermia and diminished motor activity”, the “Cholinergic side effect parameters” value ([5]; concentrations superior to 30 mg/kg, mice) was “all checked parameters are altered” and the “Reversion … step down latency” value ([6]; 5.6 mg/kg) was “complete reversion of the amnesia induced by scopolamine; also recorded: totally reversed the effect of scopolamine”.
In the case of `CN1C(=O)c2ccccc2NC(=O)[C@]12O[C@@H]2c1ccccc1` [cyclopenine], the “Concentration tested on BuChE as a multiple of the AChE IC50 (selectivity)” value (BuChE) is given as > 2,000 times and the IC50 (AChE [7]) is given as 2.04 µM.
In the case of `CO[P@]1(=O)OC[C@H]2COC(=O)C2=C(C)O1` [cyclophostin], the “Concentration tested on BuChE as a multiple of the AChE IC50 (selectivity)” value (BuChE) is given as 35 times and the IC50 (AChE [7]) is given as 0.0013 µM.
For `CC[C@H](C)[C@H]1NC(=O)c2c1n(C)c1ccccc1c2=O` [quinolactacin A1], the IC50 (AChE [8]) is given as 280 µM.
For `CC[C@H](C)[C@@H]1NC(=O)c2c1n(C)c1ccccc1c2=O` [quinolactacin A2], the “Inhibitory AChE activity relative to diastereoisomer A1” value (AChE [8]) is listed as 14 times, the IC50 (AChE [8]) is listed as 19.8 µM and the IC50 [9] is listed as 650 µM.
In the case of `COc1cc(-c2cc3c(c(=O)o2)C[C@]2(O)[C@@]4(C)C(=O)C=CC(C)(C)[C@]4(O)CC[C@@]2(C)O3)cc(OC)c1OC` [territrem B], the IC50 (AChE [7]) is listed as 0.0076 µM and the “Potency relative to neostigmine in AChE inhibition” value (AChE [10]) is listed as “approximately 20 times”.
For `COc1cc(-c2cc3c(c(=O)o2)C[C@]2(O)[C@@]4(C)C(=O)C=CC(C)(C)[C@]4(O)CC[C@@]2(C)O3)cc(OC)c1O` [territrem C], the IC50 (AChE [7]) is given as 0.0068 µM.
For `C/C(=C\CNc1ncnc2nc[nH]c12)CO` [zeatine], the IC50 (AChE [11]) is given as 109 µM.
In the case of `C=C1CC[C@H]2C(C)(C)[C@@H](O)CC[C@]2(C)[C@H]1CC[C@H]1C(=C)CC[C@H]2C(C)(C)[C@@H](O)CC[C@]12C` [α-onocerine, α-onocerin], the IC50 (AChE [12]) is given as 5.2 µM.
